Source: patent US20250360123A1, “METHODS AND COMPOSITIONS FOR TREATING INHERITED RETINAL DEGENERATION” (ONL Therapeutics, Inc., priority 2024, published 2025)

How the values were obtained:
Format in all cases: in vivo, mouse
CCL-2 = experiment: Transcript level of inflammatory cytokine CCL-2 in retina by rt-PCR; conditions: Fas-Lpr/P23H mice, HCQ 1.2 mg/ml in drinking water from P21, versus untreated mice
Experimental: (§1) This study was conducted in the Lpr/P23H mouse line, a Fas-deficient mouse line that is also a model of retinitis pigmentosa. Hydroxychloroquine (HCQ) was given in the drinking water at 1.2 mg/ml starting at 21 days post-natal (P21) to reduce autophagy flux (FIG. 1). Photoreceptor death was assessed by Terminal deoxynucleotidyl transferase (TdT) dUTP Nick-End Labeling (TUNEL) cell counts. Retinal structure was examined by histology and optical coherence tomography (OCT) analysis. Electroretinogram (ERG) recording and immunohistochemistry (IHC) staining of rhodopsin and m-opsin were performed to evaluate the retinal function. Transcript levels of inflammatory cytokines, CCL-2 and CCL-3, were analyzed by rt-PCR.

Fas-Lpr/P23H mice [1] = experiment: TUNEL cell counts for photoreceptor death in retina; conditions: HCQ 1.2 mg/ml in drinking water from P21, versus untreated mice, FIG. 2B
Experimental: as §1

Fas-Lpr/P23H mice [2] = experiment: ONL thickness by optical coherence tomography (OCT), Fas-deficient retinitis pigmentosa model; conditions: 3- and 4-months old, OCT at 250 and 500 μm from the optic nerve, inferior and superior retina, HCQ in drinking water versus untreated
Experimental: as §1
A proxy for retinal cell death is […] (ONL) thickness, with thicker ONLs correlating to less cell death.

Fas-Lpr/P23H mice [3] = experiment: Electroretinogram (ERG) recording, Fas-deficient retinitis pigmentosa model; conditions: 3-month and 4-month old Fas-LPR/P23H mice; HCQ versus untreated
Experimental: as §1
Photoreceptor function was assessed using electroretinograms (ERGs).

CCL-3 = experiment: Transcript level of inflammatory cytokine CCL-3 in retina by rt-PCR; conditions: Fas-Lpr/P23H mice, HCQ 1.2 mg/ml in drinking water from P21, versus untreated mice
Experimental: as §1

Fas-Lpr/P23H mice [4] = experiment: Retinal histology and IHC staining (DAPI, m-opsin, rhodopsin); conditions: HCQ versus untreated
Experimental: as §1

Q: Which results are given for `CCN(CCO)CCCC(C)Nc1ccnc2cc(Cl)ccc12` (centres unmarked) [HCQ, Hydroxychloroquine]?
A: production of inflammatory cytokine CCL-2 (CCL-2): lowered production; TUNEL-positive cell counts in the retina (Fas-Lpr/P23H mice [1]): statistically significantly fewer; optic nerve layer (ONL) thickness (Fas-Lpr/P23H mice [2]): significantly greater ONL thickness; scotopic ERG a-wave amplitude (Fas-Lpr/P23H mice [3]): significantly greater amplitude; scotopic ERG b-wave amplitude (Fas-Lpr/P23H mice [3]): significantly greater amplitude; production of inflammatory cytokine CCL-3 (CCL-3): lowered production; photoreceptor survival (histological images) (Fas-Lpr/P23H mice [4]; 3-month and 4-month old Fas-LPR/P23H mice, FIG. 6): greater photoreceptor survival; survival of cell bodies (DAPI), cones (m-opsin) and rods (rhodopsin), IHC images (Fas-Lpr/P23H mice [4]; 3-month and 4-month old Fas-Lpr/P23H mice, FIG. 7A, 7B): greater survival of cell bodies, cones, and rods
